Measurements taken from patent publication US20080312184A1 (priority 2005, published 2008).

Experiments:
[1] = tested on: powdery mildew pathogen (EBI resistant strain); assay: Control Test on Powdery Mildew of Cucumbers (EBI Resistant Strain); assay type: in vivo, cucumbers (cultivar: sagami-hanjiro); conditions: single active ingredient
[2] = tested on: gray mold fungus (MBC resistant, dicarboximide-based chemical sensitive: RS strain); assay: Control Test on Gray Mold of Tomato at its Flowering Stage (RS Strain); assay type: in vivo, tomatoes (cultivar: House-Momotaro); conditions: Table 4, single active ingredient, sprayed twice, examined after 7 days
[3] = Table 1, treated concentration 10 ppm, examined after 14 days

CC(C)CC(C)c1sccc1NC(=O)c1cn(C)nc1C(F)(F)F (racemic) [P (penthiopyrad), (RS)—N-[2-(1,3-dimethylbutyl)thiophen-3-yl]-1-methyl-3-tri fluoromethyl-1H-pyrazole-4-carboxamide]
Control Value [1, 3]: 68 | Control Value ([1]; Table 7 (Example B), treated concentration 10 ppm): 68 | Control Value ([2]; treated concentration 10 ppm): 56

Clc1nc(Cl)nc(Nc2ccccc2Cl)n1 [Anilazine, anilazine]
Control Value ([2]; treated concentration 50 ppm): 40

O=C(Nc1ccccc1-c1ccc(Cl)cc1)c1cccnc1Cl [Boscalid, boscalid]
Control Value ([2]; treated concentration 20 ppm): 48

CCCCc1c(C)nc(NCC)nc1OS(=O)(=O)N(C)C [Bupirimate, bupirimate]
Control Value ([1]; Table 1, treated concentration 20 ppm, examined after 14 days): 45

CCOC(=O)C1(C)OC(=O)N(c2cc(Cl)cc(Cl)c2)C1=O (stereo not drawn) [Chlozolinate, chlozolinate]
Control Value ([2]; treated concentration 40 ppm): 42

O=C(Cc1ccccc1)N/C(=N\OCC1CC1)c1c(C(F)(F)F)ccc(F)c1F [Cyflufenamid, cyflufenamid]
Control Value ([1]; Table 1, treated concentration 5 ppm, examined after 14 days): 66

CNC(=O)/C(=N/OC)c1ccccc1COc1cc(C)ccc1C [Dimoxystrobin, dimoxystrobin]
Control Value ([1]; Table 7 (Example B), treated concentration 15 ppm): 60

CC1(C(=O)Nc2ccc(O)c(Cl)c2Cl)CCCCC1 [Fenhexamid, fenhexamid]
Control Value ([2]; treated concentration 20 ppm): 55

FC(F)C(F)(F)OCC(Cn1cncn1)c1ccc(Cl)cc1Cl (stereo not drawn) [Tetraconazole, tetraconazole]
Control Value [1, 3]: 34

CC(C)(C)C(=O)C(Oc1ccc(Cl)cc1)n1cncn1 (stereo not drawn) [Triadimefon, triadimefon]
Control Value [1, 3]: 29
